Measurements as given in patent US20230309554A1, “Polymer Carriers for Delivery of Agrochemicals in Crop Plants” (Carnegie Mellon University, priority 2020, published 2023).

What was measured:
[1] = system: tomato leaves; conditions: in vivo
Description: Tracer loading into star polymers. To load CV into star polymers, 10 mg of star polymer was dissolved into 5 mL of Milli Q water with pH adjusted to 7.5 by adding aliquots of 0.1M HCl and 0.1 M NaOH. 2 mg of CV was added into the star polymer solution and the mixture was vortex mixed for 24 h. The resulting solution was dialyzed against 2 L of Milli Q water for 2 cycles to remove free CV. After dialysis, the sample volume was adjusted to 20 mL to get a 0.5 g L^−1 CV loaded star polymer solution. Spreading agent Silwet L-77 was added into the star polymer solution at 0.1% (v/v) before foliar application. 20 μL of the CV loaded star polymer was applied onto tomato leaves by drop deposition.
This enhanced resolution dark-field microscope system (BX51, Olympus, USA) was equipped with a 150 W halogen light source (Fiber-Lite, Dolan-Jenner, USA) and a hyperspectral camera (CytoViva hyperspectral imaging system 1.4). […] Hyperspectral images were acquired using 100% light source intensity and 0.1 to 0.25 s acquisition per line and corrected for the lamp contribution. […]
RSP uptake and distribution in tomato leaves. RSP interactions with the plant leaf after foliar application was assessed by dark field hyperspectral imaging (DF-HSI) of crystal violet (CV) loaded RSP in tomato leaves. […]

[2] = system: tomato plants; assay: Leaf carbon assimilation and chlorophyll fluorescence under combined heat and excess light stress; assay type: in vivo, Solanum lycopersicum; conditions: after heat and light stress 1.5 h
Description: Plant growth. […] The sterilized seeds were germinated in petri-dish on water-soaked filter paper under dark for 10 days. Afterwards, the seedlings were transplanted to 100 mL plastic cups. Each seedling was grown hydroponically using 1⁄4 strength Hoagland's solution aerated using air pumps. […] Leaf carbon assimilation rate and chlorophyll fluorescence. Plant leaf carbon assimilation and chlorophyll fluorescence was measured by a Li-Cor Li-6800 portable photosynthesis system. […] Combined heat and excess light stress. The carbon (A-Ci) and light response (A-PAR) curves of treated leaves were measured before stress conditions. […] The carbon and light response curves were measured again and compared with the curve acquired before stress. […] Light adapted ([…]) chlorophyll fluorescent test were also performed before and after stress conditions. The A-Ci curves were analyzed according to previously reported model for C3 plants: […]

Structure (SMILES): CN(C)c1ccc(C(=C2C=CC(=[N+](C)C)C=C2)c2ccc(N(C)C)cc2)cc1 [CV, crystal violet]
- Location in tomato leaf [1]: primarily found on the leaf epidermis, with a limited amount inside the mesophyll

Structure (SMILES): [Cl-].[Cl-].[Mg+2] [Mg^2+]
- Photosynthesis enhancement compared to control leaves [2]: No significant photosynthesis enhancement
